Some test systems named below: HOP-92; KM12; HCC 2998; NCI-H522; RPMI-8226; OVCAR-8; K562; SF-539; UACC-62; HL-60; IGROV-1; CCRF-CEM; A549; SF-295; NCI-H226; EKVX; HOP-62; HCT-15; SN12C; SNB-19.
What all share (test): DTP human tumour cell line panel, 48 h

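1) Cells in 96-well plates. 2) Compound, 48 h, 5 concentrations. 3) Linear interpolation between surrounding doses. 4) Unreached endpoint = highest concentration. GI50 is the concentration that inhibits growth by half.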 Calls of active or inactive are those of the source. Rule as the data show it: active = GI50 up to about 1.1 µM and inactive = higher.

In the case of `C=C1C2=C(CCCC2)C(=O)OC12CCCCC2`, the GI50 in the experiment on HOP-92 is 19.5 µM (inactive); in the experiment with KM12 it was 85.5 µM (inactive); in the experiment on HCC 2998, > 100 µM (inactive); in the experiment with NCI-H522 it was 35.5 µM (inactive); with RPMI-8226, 35.5 µM (inactive); in the experiment with OVCAR-8, > 100 µM (inactive). The GI50 with K562 was 45.2 µM (inactive); in the experiment with SF-539, > 100 µM (inactive); with UACC-62, 56.9 µM (inactive); with HL-60, 27.1 µM (inactive); in the experiment with IGROV-1, 88.9 µM (inactive); with CCRF-CEM, 51.4 µM (inactive). Further, the GI50 is 49.3 µM (inactive) in the experiment with A549; 57.7 µM (inactive) in the experiment with SF-295; 93.8 µM (inactive) in the experiment with NCI-H226; 52.1 µM (inactive) with EKVX; > 100 µM (inactive) in the experiment with HOP-62; 60.1 µM with HCT-15. Besides, the GI50 with SN12C and in the experiment on SNB-19 was > 100 µM (inactive) in each case.

Consider `CC(=O)Oc1ccccc1C(=O)C1c2cccc(O)c2C(=O)c2c(O)cccc21`, for which the GI50 in the experiment with HOP-92 was 1.18 µM (inactive); with KM12, 0.421 µM (active); with HCC 2998 it was 0.581 µM (active); with NCI-H522 it was 0.479 µM (active); in the experiment with RPMI-8226 it was 0.374 µM (active); in the experiment with OVCAR-8, 1.23 µM (inactive). The GI50 is 0.366 µM (active) in the experiment with K562; 0.46 µM (active) in the experiment on SF-539; 0.794 µM (active) in the experiment with UACC-62; 0.222 µM (active) in the experiment with HL-60; 0.986 µM (active) with IGROV-1; 0.306 µM (active) in the experiment on CCRF-CEM. The concentration for 50% growth inhibition (GI50) in the experiment with A549 is 0.776 µM (active); with SF-295, 0.682 µM (active); in the experiment with NCI-H226, 1.63 µM (inactive); in the experiment with EKVX, 2.18 µM (inactive); in the experiment on HOP-62, 1.44 µM (inactive); in the experiment with HCT-15 it was 1.08 µM. For the same molecule, the GI50 is 2.3 µM (inactive) with SN12C and 0.416 µM (active) in the experiment with SNB-19.

Take `c1ccc2c(NCCCCCCCCNc3cccc4ccccc34)cccc2c1`: the GI50 in the experiment with HOP-92 is 18.2 µM (inactive); with KM12, > 100 µM (inactive); in the experiment on HCC 2998, > 100 µM (inactive); in the experiment with NCI-H522 it was 16.4 µM (inactive); with RPMI-8226, > 10 µM (inactive); in the experiment with OVCAR-8, 24.5 µM (inactive). Moreover, the GI50 was 21.5 µM (inactive) with K562; 27 µM (inactive) in the experiment on SF-539; 20.5 µM (inactive) with UACC-62; 22.7 µM (inactive) in the experiment with HL-60; 49.8 µM (inactive) in the experiment with IGROV-1; 14.6 µM (inactive) in the experiment on CCRF-CEM. Further, the GI50 with A549 was > 100 µM (inactive); in the experiment with SF-295, > 100 µM (inactive); in the experiment on NCI-H226, 85.1 µM (inactive); in the experiment with EKVX it was > 10 µM (inactive); in the experiment with HOP-62, > 100 µM (inactive); in the experiment on HCT-15 it was 25.8 µM. Further, the GI50 is 35.6 µM (inactive) in the experiment on SN12C and > 100 µM (inactive) in the experiment on SNB-19.

On to `CC(=O)Oc1ccccc1[C@H]1CC(=O)C[C@H](c2ccccc2OC(C)=O)C12C(=O)c1ccccc1C2=O`, for which the GI50 with HOP-92 was 47.9 µM (inactive); in the experiment with KM12 it was 59.6 µM (inactive); in the experiment with HCC 2998 it was 25.5 µM (inactive); with NCI-H522, 26.7 µM (inactive); with RPMI-8226, 59.6 µM (inactive); in the experiment on OVCAR-8, 39.6 µM (inactive). In addition, the GI50 was 12.7 µM (inactive) with K562; 13 µM (inactive) with UACC-62; > 100 µM (inactive) in the experiment with HL-60; 44.5 µM (inactive) in the experiment with IGROV-1; 10.9 µM (inactive) with CCRF-CEM; 22.6 µM (inactive) in the experiment with SF-295. The GI50 was 27.6 µM (inactive) in the experiment with NCI-H226; 30.4 µM (inactive) in the experiment on HOP-62; 26.2 µM in the experiment on HCT-15; 37.4 µM (inactive) in the experiment on SN12C; 60.4 µM (inactive) in the experiment with SNB-19.

In the case of `COc1c(O)c(C=O)c2c(O)c(-c3c(C)cc4c(C(C)C)c(OC)c(O)c(C=O)c4c3O)c(C)cc2c1C(C)C` [6,6'-METHOXYGOSSYPOL], the GI50 was 2.2 µM (inactive) in the experiment with HOP-92; 5.05 µM (inactive) with KM12; 2.65 µM (inactive) with HCC 2998; 2.62 µM (inactive) with NCI-H522; 4.32 µM (inactive) with RPMI-8226; 3.74 µM (inactive) in the experiment on OVCAR-8. Besides, the GI50 in the experiment with K562 is 11.8 µM (inactive); with SF-539, 4.36 µM (inactive); with UACC-62, 11.9 µM (inactive); in the experiment with HL-60 it was 4.46 µM (inactive); in the experiment on IGROV-1 it was 5.47 µM (inactive); with CCRF-CEM, 5.16 µM (inactive). Further, the GI50 in the experiment with A549 was 3.52 µM (inactive); in the experiment on SF-295 it was 4.19 µM (inactive); with NCI-H226 it was 2.43 µM (inactive); in the experiment with EKVX, 4.86 µM (inactive); in the experiment with HOP-62, 2.98 µM (inactive); in the experiment on HCT-15 it was 3.74 µM. The GI50 in the experiment on SN12C was 2.74 µM (inactive); with SNB-19 it was 3.88 µM (inactive).

For `COc1ccc(C(O)CNC(=O)c2ccccc2)cc1` (configuration not stated), the GI50 in the experiment on HOP-92, with KM12, with HCC 2998, with NCI-H522, in the experiment with RPMI-8226 and in the experiment with OVCAR-8 was > 100 µM (inactive) in each case. Moreover, the GI50 in the experiment with K562, in the experiment on SF-539, with UACC-62, with HL-60, with IGROV-1 and in the experiment on CCRF-CEM was > 100 µM (inactive) throughout. For the same molecule, the GI50 in the experiment with A549 was > 100 µM (inactive); with SF-295, > 100 µM (inactive); in the experiment on NCI-H226, > 100 µM (inactive); in the experiment with EKVX it was > 100 µM (inactive); in the experiment on HOP-62, > 100 µM (inactive); in the experiment on HCT-15 it was more than 100 µM. The GI50 in the experiment on SN12C and in the experiment on SNB-19 was > 100 µM (inactive) throughout.

For the molecule `COc1ccccc1-c1cc(O)c2cc(C)cnc2n1`, the GI50 with HOP-92 is 36.8 µM (inactive); in the experiment on KM12 it was 5.5 µM (inactive); with HCC 2998 it was 62.1 µM (inactive); in the experiment with NCI-H522 it was 17.2 µM (inactive); in the experiment with RPMI-8226 it was 30.4 µM (inactive); in the experiment with OVCAR-8, 66.2 µM (inactive). Also, the GI50 is 5.89 µM (inactive) in the experiment with K562; 38.5 µM (inactive) in the experiment with SF-539; 31.8 µM (inactive) with UACC-62; 16.4 µM (inactive) in the experiment with IGROV-1; 17.2 µM (inactive) in the experiment on CCRF-CEM; 51.6 µM (inactive) in the experiment with A549. For the same molecule, the GI50 was 52.2 µM (inactive) in the experiment with NCI-H226; 52.1 µM (inactive) in the experiment on EKVX; 42.9 µM (inactive) with HOP-62; 19.3 µM in the experiment on HCT-15; 66.4 µM (inactive) in the experiment with SN12C; 71.9 µM (inactive) in the experiment on SNB-19.

For the molecule `CCCCSCCC(N)P(=O)(O)O` (configuration not stated), the GI50 with HOP-92, with HCC 2998, in the experiment with NCI-H522, with RPMI-8226, in the experiment on OVCAR-8 and with K562 was > 100 µM (inactive) throughout. In addition, the GI50 in the experiment with HL-60, in the experiment on IGROV-1, in the experiment with CCRF-CEM, in the experiment on A549, in the experiment with SF-295 and with NCI-H226 was > 100 µM (inactive) throughout. Further, the GI50 with HOP-62 is > 100 µM (inactive); in the experiment on HCT-15 it was more than 100 µM; with SN12C it was > 100 µM (inactive); with SNB-19, > 100 µM (inactive).

Regarding `COc1cccc(-c2c(C#N)c(N)nc3c2CCS(=O)(=O)c2ccc(C)cc2-3)c1`, the GI50 was > 100 µM (inactive) with HOP-92; > 100 µM (inactive) in the experiment with KM12; 78.2 µM (inactive) in the experiment with HCC 2998; > 100 µM (inactive) with NCI-H522; > 100 µM (inactive) in the experiment on RPMI-8226; 43.8 µM (inactive) in the experiment on OVCAR-8. Also, the GI50 with K562, in the experiment on UACC-62, in the experiment with HL-60, in the experiment on IGROV-1, with CCRF-CEM and with A549 was > 100 µM (inactive) throughout. The GI50 in the experiment on NCI-H226 was > 100 µM (inactive); in the experiment on HOP-62 it was > 100 µM (inactive); in the experiment on HCT-15, more than 100 µM; in the experiment on SN12C, > 100 µM (inactive); in the experiment on SNB-19 it was 56.2 µM (inactive).

Regarding `Clc1ccc(C2ON=C(c3ccccc3)N2C23CC4CC(CC(C4)C2)C3)c(Cl)c1` (configuration not stated), the GI50 in the experiment on HOP-92, with KM12, with HCC 2998, in the experiment with NCI-H522, in the experiment on RPMI-8226 and with OVCAR-8 was > 10 µM (inactive) in each case. The GI50 in the experiment with K562, with SF-539, in the experiment on UACC-62, in the experiment on IGROV-1, with CCRF-CEM and in the experiment on A549 was > 10 µM (inactive) each time. For the same molecule, the GI50 in the experiment with SF-295 is > 10 µM (inactive); in the experiment with NCI-H226, > 10 µM (inactive); in the experiment on EKVX, > 10 µM (inactive); in the experiment on HOP-62, > 10 µM (inactive); in the experiment on HCT-15 it was more than 10 µM; in the experiment on SN12C it was > 10 µM (inactive). For the same molecule, in the experiment on SNB-19, the GI50 is > 10 µM (inactive).

For `O=NN(CC1(O)OCC(O)C(O)C1O)C(Cc1c[nH]c2ccccc12)C(=O)O` (configuration not stated), the GI50 with HOP-92, in the experiment on KM12, in the experiment on HCC 2998, in the experiment on NCI-H522, in the experiment with RPMI-8226 and with OVCAR-8 was > 100 µM (inactive) in each case. The GI50 in the experiment on K562, with SF-539, in the experiment with UACC-62, in the experiment with HL-60, with IGROV-1 and in the experiment on CCRF-CEM was > 100 µM (inactive) in each case. In addition, the GI50 with A549, in the experiment on EKVX and in the experiment on HOP-62 was > 100 µM (inactive) in each case.

The GI50 is the concentration giving 50% growth inhibition.

Values taken from ChEMBL document CHEMBL1201862, “PubChem BioAssay data set” (2004).
